In patent US7723068B2, “Gene cluster involved in safracin biosynthesis and its uses for genetic engineering” (PharmaMar, S.A., priority 2002, dated 2010):

How the values were obtained:
[1] = test system: HELA-APL; conditions: Cervix
[2] = test system: SK-MEL-28; assay: cells; conditions: Homo sapiens; for GI50: SK-MEL-28, read-out: GI50 SK-MEL-28; for CC50: SK-MEL-28, read-out: LC50 SK-MEL-28
[3] = test system: HT29; conditions: Colon
[4] = test system: LOVO-DOX; conditions: Colon
[5] = test system: A549; conditions: NSCL
[6] = test system: IGROV; conditions: Ovary
[7] = test system: IGROV-ET; conditions: Ovary
[8] = Antibacterial and antitumoral activities, general statements; conditions: compared with safracin A / safracin B
[9] = test system: LOVO; assay: cells; conditions: Homo sapiens; for GI50: read-out: GI50 LOVO; for CC50: read-out: LC50 LOVO
[10] = test system: SK-BR3; assay: cells; conditions: Homo sapiens; for GI50: SK-BR-3, read-out: GI50 SK-BR3; for CC50: SK-BR-3, read-out: LC50 SK-BR3
[11] = test system: A549; assay: cells; conditions: Homo sapiens; for GI50: A549, read-out: GI50 A549; for CC50: A549, read-out: LC50 A549
[12] = test system: SK-MEL-28; conditions: Melanoma
[13] = test system: HELA; assay: cells; conditions: Homo sapiens; for GI50: read-out: GI50 HELA; for CC50: read-out: LC50 HELA
[14] = test system: K-562; assay: cells; conditions: Homo sapiens; for GI50: K562, read-out: GI50 K-562; for CC50: K562, read-out: LC50 K-562
[15] = test system: Bacillus subtilis; assay: Antimicrobial activity on solid medium, disk; assay type: cell-based; conditions: 10 μg/disk (6 mm diameter)
Method: Antimicrobial activity: On solid medium Bacillus subtilis. 10 μg/disk (6 mm diameter): 10 mm inhibition zone Spectroscopic Data: […]

[16] = test system: PANC1; conditions: Pancreas
[17] = test system: LOVO; conditions: Colon
[18] = test system: LOVO-DOX; assay: cells; conditions: for GI50: read-out: GI50 LOVO-DOX; for CC50: read-out: LC50 LOVO-DOX
[19] = test system: IGROV; assay: cells; conditions: for GI50: read-out: GI50 IGROV; for CC50: read-out: LC50 IGROV
[20] = test system: LN-caP; conditions: Prostate
[21] = test system: HELA; conditions: Cervix
[22] = test system: HELA-APL; assay: cells; conditions: for GI50: read-out: GI50 HELA-APL; for CC50: read-out: LC50 HELA-APL
[23] = test system: IGROV-ET; assay: cells; conditions: for GI50: read-out: GI50 IGROV-ET; for CC50: read-out: LC50 IGROV-ET
[24] = test system: DU-145; conditions: Prostate
[25] = test system: LN-caP; assay: cells; conditions: Homo sapiens, LNCaP; for GI50: read-out: GI50 LN-caP; for CC50: read-out: LC50 LN-caP
[26] = test system: DU-145; assay: cells; conditions: Homo sapiens; for GI50: DU-145, read-out: GI50 DU-145; for CC50: DU-145, read-out: LC50 DU-145
[27] = test system: HT29; assay: cells; conditions: Homo sapiens; for GI50: HT-29, read-out: GI50 HT29; for CC50: HT-29, read-out: LC50 HT29
[28] = test system: SK-BR3; conditions: Breast
[29] = test system: PANC1; assay: cells; conditions: Homo sapiens; for GI50: PANC-1, read-out: GI50 PANC1; for CC50: PANC-1, read-out: LC50 PANC1
[30] = test system: K-562; conditions: Leukemia

For COc1c(C)cc2c(c1O)C1NC(C2)C(O)N2C(CNC(=O)C(C)N)c3c(cc(C)c(OC)c3O)CC12 (stereo not shown) [Safracin P-19B], the “TGI HELA-APL” value [1] was 10 µM, the GI50 [2] was 7.9 µM and the CC50 [2] was > 19.5 µM. For the same compound, the “TGI HT29” value [3] was >19.5 µM, the “TGI LOVO-DOX” value [4] was >19.5 µM and the “TGI A549” value [5] was >19.5 µM. The “TGI IGROV” value [6] was 14.8 µM, the “TGI IGROV-ET” value [7] was >19.5 µM and the “antibacterial and antitumoral activities (in words)” value [8] was “appear to loose their activity”. For the same compound, the GI50 [9] was > 19.5 µM, the CC50 [9] was > 19.5 µM and the GI50 [10] was 7.08 µM. For the same compound, the CC50 [10] was > 19.5 µM, the GI50 [11] was > 19.5 µM and the CC50 [11] was > 19.5 µM. The “TGI SK-MEL-28” value [12] was >19.5 µM, the GI50 [13] was 6.73 µM and the CC50 [13] was > 19.5 µM. For the same compound, the GI50 [14] was 2.38 µM, the CC50 [14] was 14 µM and the “Antimicrobial activity: inhibition zone” value [15] was “NO ACTIVE”. The “TGI PANC1” value [16] was >19.5 µM, the “TGI LOVO” value [17] was >19.5 µM and the GI50 [18] was 14.4 µM. The CC50 [18] was > 19.5 µM, the GI50 [19] was 5.42 µM and the CC50 [19] was > 19.5 µM. For the same compound, the “TGI LN-caP” value [20] was 8.06 µM, the “TGI HELA” value [21] was 16.1 µM and the GI50 [22] was 4.8 µM. The CC50 [22] was 19.5 µM, the GI50 [23] was 8.74 µM and the CC50 [23] was > 19.5 µM. For the same compound, the “TGI DU-145” value [24] was >19.5 µM, the GI50 [25] was 3.9 µM and the CC50 [25] was 16.7 µM. For the same compound, the GI50 [26] was 17 µM, the CC50 [26] was > 19.5 µM and the GI50 [27] was 15.5 µM. The CC50 [27] was > 19.5 µM, the “TGI SK-BR3” value [28] was 19.2 µM and the GI50 [29] was 18.1 µM. The CC50 [29] was > 19.5 µM and the “TGI K-562” value [30] was 5.77 µM.

In the case of COc1c(C)cc2c(c1O)C1C3Cc4cc(C)c(OC)c(O)c4C(CNC(=O)C(C)N)N3C(O)C(C2)N1C (stereo not shown) [Safracin P-22B], the “TGI HELA-APL” value [1] is reported as 0.932 µM, the GI50 [2] is reported as 0.52 µM and the CC50 [2] is reported as 2.01 µM. For the same compound, the “TGI HT29” value [3] was 2.75 µM, the “TGI LOVO-DOX” value [4] was 19 µM and the “TGI A549” value [5] was 8.83 µM. The “TGI IGROV” value [6] was 2.3 µM, the “TGI IGROV-ET” value [7] was 7.04 µM and the “antibacterial and antitumoral activities (in words)” value [8] was “appear to loose their activity”. For the same compound, the GI50 [9] was 2.54 µM, the CC50 [9] was 18.4 µM and the GI50 [10] was 0.824 µM. For the same compound, the CC50 [10] was 8.85 µM, the GI50 [11] was 4.71 µM and the CC50 [11] was 16.6 µM. For the same compound, the “TGI SK-MEL-28” value [12] was 0.999 µM, the GI50 [13] was 0.761 µM and the CC50 [13] was 7.42 µM. For the same compound, the GI50 [14] was 0.113 µM, the CC50 [14] was 1.84 µM and the zone of inhibition at 10 µg/disc ([15]; Bacillus subtilis) was 10 mm. For the same compound, the “TGI PANC1” value [16] was 11.7 µM, the “TGI LOVO” value [17] was 6.84 µM and the GI50 [18] was 6.95 µM. The CC50 [18] was > 19 µM, the GI50 [19] was 0.849 µM and the CC50 [19] was 12.1 µM. The “TGI LN-caP” value [20] was 0.608 µM, the “TGI HELA” value [21] was 1.83 µM and the GI50 [22] was 0.465 µM. The CC50 [22] was 1.86 µM, the GI50 [23] was 3.02 µM and the CC50 [23] was 16.5 µM. The “TGI DU-145” value [24] was 8.62 µM, the GI50 [25] was 0.308 µM and the CC50 [25] was 1.2 µM. For the same compound, the GI50 [26] was 4.58 µM, the CC50 [26] was 16.2 µM and the GI50 [27] was 1.01 µM. For the same compound, the CC50 [27] was 18.6 µM, the “TGI SK-BR3” value [28] was 2.28 µM and the GI50 [29] was 4.77 µM. The CC50 [29] was > 19 µM and the “TGI K-562” value [30] was 0.467 µM.
